In patent US8192962B2, “Processes for detecting toxic substances” (Daikin Industries, Ltd., priority 2001, dated 2012):

Tested on: Mitochondria-located protein genes
Assay: DNA chip mRNA expression in yeast, mitochondria-located protein genes (Table 2)
Type: cell-based, Saccharomyces cerevisiae S288C
Conditions: cells incubated two hours with the chemical substance
Method in brief: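 S. cerevisiae S288C grown at 25° C in YPD were exposed in log phase for two hours to one toxic chemical at a growth-inhibiting, non-lethal concentration; untreated cells served as control. Poly(A) mRNA was reverse-transcribed with Cy3/Cy5-dUTP and hybridized to a whole-genome yeast DNA chip at 65° C for over 12 hours; values are fluorescence ratios versus untreated.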

N#Cc1c(Cl)c(Cl)c(Cl)c(C#N)c1Cl [(9), 2,4,5,6-tetrachloro-1,3-benzenedicarbonitrile]
The level of expressed mRNA in the presence of chemical substance/The level of expressed mRNA in the absence of chemical substance (yeast gene YAL039C): 1.6 | The level of expressed mRNA in the presence of chemical substance/The level of expressed mRNA in the absence of chemical substance (yeast gene YBL022C): 2.8 | The level of expressed mRNA in the presence of chemical substance/The level of expressed mRNA in the absence of chemical substance (yeast gene YBL030C): 0.4 | The level of expressed mRNA in the presence of chemical substance/The level of expressed mRNA in the absence of chemical substance (yeast gene YBL038W): 1.4 | The level of expressed mRNA in the presence of chemical substance/The level of expressed mRNA in the absence of chemical substance (yeast gene YBL099W): 0.9 | The level of expressed mRNA in the presence of chemical substance/The level of expressed mRNA in the absence of chemical substance (yeast gene YBR003W): 1.0 | The level of expressed mRNA in the presence of chemical substance/The level of expressed mRNA in the absence of chemical substance (yeast gene YBR044C): 0.8 | The level of expressed mRNA in the presence of chemical substance/The level of expressed mRNA in the absence of chemical substance (yeast gene YBR091C): 0.7 | The level of expressed mRNA in the presence of chemical substance/The level of expressed mRNA in the absence of chemical substance (yeast gene YBR122C): 1.1 | The level of expressed mRNA in the presence of chemical substance/The level of expressed mRNA in the absence of chemical substance (yeast gene YBR185C): 0.9 | The level of expressed mRNA in the presence of chemical substance/The level of expressed mRNA in the absence of chemical substance (yeast gene YBR221C): 1.0 | The level of expressed mRNA in the presence of chemical substance/The level of expressed mRNA in the absence of chemical substance (yeast gene YBR251W): 0.5 | The level of expressed mRNA in the presence of chemical substance/The level of expressed mRNA in the absence of chemical substance (yeast gene YBR282W): 1.0 | The level of expressed mRNA in the presence of chemical substance/The level of expressed mRNA in the absence of chemical substance (yeast gene YCL057W): 4.2 | The level of expressed mRNA in the presence of chemical substance/The level of expressed mRNA in the absence of chemical substance (yeast gene YCR046C): 1.9 | The level of expressed mRNA in the presence of chemical substance/The level of expressed mRNA in the absence of chemical substance (yeast gene YCR083W): 1.8 | The level of expressed mRNA in the presence of chemical substance/The level of expressed mRNA in the absence of chemical substance (yeast gene YDL067C): 0.9 | The level of expressed mRNA in the presence of chemical substance/The level of expressed mRNA in the absence of chemical substance (yeast gene YDL181W): 0.7 | The level of expressed mRNA in the presence of chemical substance/The level of expressed mRNA in the absence of chemical substance (yeast gene YDL198C): 1.9 | The level of expressed mRNA in the presence of chemical substance/The level of expressed mRNA in the absence of chemical substance (yeast gene YDR079W): 0.9 | The level of expressed mRNA in the presence of chemical substance/The level of expressed mRNA in the absence of chemical substance (yeast gene YDR178W): 0.9 | The level of expressed mRNA in the presence of chemical substance/The level of expressed mRNA in the absence of chemical substance (yeast gene YDR231C): 1.5 | The level of expressed mRNA in the presence of chemical substance/The level of expressed mRNA in the absence of chemical substance (yeast gene YDR258C): 4.9 | The level of expressed mRNA in the presence of chemical substance/The level of expressed mRNA in the absence of chemical substance (yeast gene YDR298C): 1.0 | The level of expressed mRNA in the presence of chemical substance/The level of expressed mRNA in the absence of chemical substance (yeast gene YDR347W): 0.8 | The level of expressed mRNA in the presence of chemical substance/The level of expressed mRNA in the absence of chemical substance (yeast gene YDR377W): 1.0 | The level of expressed mRNA in the presence of chemical substance/The level of expressed mRNA in the absence of chemical substance (yeast gene YDR529C): 0.5 | The level of expressed mRNA in the presence of chemical substance/The level of expressed mRNA in the absence of chemical substance (yeast gene YEL024W): 0.7 | The level of expressed mRNA in the presence of chemical substance/The level of expressed mRNA in the absence of chemical substance (yeast gene YEL039C): 1.2 | The level of expressed mRNA in the presence of chemical substance/The level of expressed mRNA in the absence of chemical substance (yeast gene YER178W): 1.7 | The level of expressed mRNA in the presence of chemical substance/The level of expressed mRNA in the absence of chemical substance (yeast gene YFL016C): 6.4 | The level of expressed mRNA in the presence of chemical substance/The level of expressed mRNA in the absence of chemical substance (yeast gene YGL018C): 0.5 | The level of expressed mRNA in the presence of chemical substance/The level of expressed mRNA in the absence of chemical substance (yeast gene YGL187C): 0.6 | The level of expressed mRNA in the presence of chemical substance/The level of expressed mRNA in the absence of chemical substance (yeast gene YGL191W): 1.1 | The level of expressed mRNA in the presence of chemical substance/The level of expressed mRNA in the absence of chemical substance (yeast gene YGR008C): 3.1 | The level of expressed mRNA in the presence of chemical substance/The level of expressed mRNA in the absence of chemical substance (yeast gene YGR028W): 1.7 | The level of expressed mRNA in the presence of chemical substance/The level of expressed mRNA in the absence of chemical substance (yeast gene YGR062C): 1.0 | The level of expressed mRNA in the presence of chemical substance/The level of expressed mRNA in the absence of chemical substance (yeast gene YGR076C): 1.2 | The level of expressed mRNA in the presence of chemical substance/The level of expressed mRNA in the absence of chemical substance (yeast gene YGR082W): 0.6 | The level of expressed mRNA in the presence of chemical substance/The level of expressed mRNA in the absence of chemical substance (yeast gene YGR174C): 1.8 | The level of expressed mRNA in the presence of chemical substance/The level of expressed mRNA in the absence of chemical substance (yeast gene YGR244C): 1.4 | The level of expressed mRNA in the presence of chemical substance/The level of expressed mRNA in the absence of chemical substance (yeast gene YHR008C): 1.7 | The level of expressed mRNA in the presence of chemical substance/The level of expressed mRNA in the absence of chemical substance (yeast gene YIL155C): 2.5 | The level of expressed mRNA in the presence of chemical substance/The level of expressed mRNA in the absence of chemical substance (yeast gene YJL096W): 1.0 | The level of expressed mRNA in the presence of chemical substance/The level of expressed mRNA in the absence of chemical substance (yeast gene YJL102W): 3.1 | The level of expressed mRNA in the presence of chemical substance/The level of expressed mRNA in the absence of chemical substance (yeast gene YJL133W): 0.6 | The level of expressed mRNA in the presence of chemical substance/The level of expressed mRNA in the absence of chemical substance (yeast gene YJL166W): 1.3 | The level of expressed mRNA in the presence of chemical substance/The level of expressed mRNA in the absence of chemical substance (yeast gene YJL180C): 1.4 | The level of expressed mRNA in the presence of chemical substance/The level of expressed mRNA in the absence of chemical substance (yeast gene YJR045C): 3.2 | The level of expressed mRNA in the presence of chemical substance/The level of expressed mRNA in the absence of chemical substance (yeast gene YJR077C): 0.4
